In this data set the test system is CCRIS mutagenicity, Ames/micronucleus/aberration tests. Put plainly: CCRIS mutagenicity studies.
Where [1] appears, read: Test System: AMES SALMONELLA TYPHIMURIUM, Strain/Indicator: TA98, Metabolic Activation: NONE, Method: PREINCUBATION
Setting [2] is: Test System: AMES SALMONELLA TYPHIMURIUM, Strain/Indicator: TA100, Metabolic Activation: NONE, Method: PREINCUBATION
Setting [3] is: Test System: AMES SALMONELLA TYPHIMURIUM, Strain/Indicator: TA97, Metabolic Activation: NONE, Method: PREINCUBATION
The mark [4] stands for this setting: Test System: AMES SALMONELLA TYPHIMURIUM, Strain/Indicator: TA1535, Metabolic Activation: NONE, Method: PREINCUBATION

Molecules are shown by their SMILES. The source made the active and inactive calls. No rule for the calls is given here.

We go through 6 compounds from PubChem BioAssay AID1259407 (Chemical Carcinogenesis Research Information System (CCRIS), 2018).

For the compound `O=[N+]([O-])c1ccc(Br)cc1`, the mutagenic call runs as follows: (End Point: IN VITRO CHROMOSOMAL ABERRATIONS, Test System: HUMAN PERIPHERAL LYMPHOCYTES, Metabolic Activation: NONE) “inactive; negative”; under setting [1], “inactive; negative”; (Test System: AMES SALMONELLA TYPHIMURIUM, Strain/Indicator: TA98, Metabolic Activation: RAT, LIVER, S-9, KANECHLOR 500, Method: PREINCUBATION) “inactive; negative”; under setting [2], “inactive; negative”; (Test System: AMES SALMONELLA TYPHIMURIUM, Strain/Indicator: TA100, Metabolic Activation: RAT, LIVER, S-9, KANECHLOR 500, Method: PREINCUBATION) “active; positive”.

On to `COC(=O)c1c2c(c3ccccc3c1O)OC(C)(C)C=C2`, for which the mutagenic call runs as follows: under setting [2], “active; positive”; (Test System: AMES SALMONELLA TYPHIMURIUM, Strain/Indicator: TA100, Metabolic Activation: RAT, LIVER, S-9, PCB, Method: PREINCUBATION) “active; positive”.

With `Nc1c2ccccc2nc2ccc(I)cc12`, the mutagenic call (Test System: AMES SALMONELLA TYPHIMURIUM, Strain/Indicator: TA1537, Metabolic Activation: NONE, Method: PREINCUBATION) was “active; positive”.

For the compound `CCOC(/C=C(\C)CCC=C(C)C)OCC`, the mutagenic call is “inactive; negative” (Test System: AMES SALMONELLA TYPHIMURIUM, Strain/Indicator: TA97, Metabolic Activation: HAMSTER, LIVER, S-9, AROCLOR 1254 (10%), Method: PREINCUBATION); “inactive; negative” under setting [3]; “inactive; negative” (Test System: AMES SALMONELLA TYPHIMURIUM, Strain/Indicator: TA97, Metabolic Activation: RAT, LIVER, S-9, AROCLOR 1254 (10%), Method: PREINCUBATION); “inactive; negative” (Test System: AMES SALMONELLA TYPHIMURIUM, Strain/Indicator: TA98, Metabolic Activation: HAMSTER, LIVER, S-9, AROCLOR 1254 (10%), Method: PREINCUBATION); “inactive; negative” under setting [1]; “inactive; negative” (Test System: AMES SALMONELLA TYPHIMURIUM, Strain/Indicator: TA98, Metabolic Activation: RAT, LIVER, S-9, AROCLOR 1254 (10%), Method: PREINCUBATION). In addition, the mutagenic call by setting is: (Test System: AMES SALMONELLA TYPHIMURIUM, Strain/Indicator: TA100, Metabolic Activation: HAMSTER, LIVER, S-9, AROCLOR 1254 (10%), Method: PREINCUBATION) “inactive; negative”; under setting [2], “inactive; negative”; (Test System: AMES SALMONELLA TYPHIMURIUM, Strain/Indicator: TA100, Metabolic Activation: RAT, LIVER, S-9, AROCLOR 1254 (10%), Method: PREINCUBATION) “inactive; negative”; (Test System: AMES SALMONELLA TYPHIMURIUM, Strain/Indicator: TA1535, Metabolic Activation: HAMSTER, LIVER, S-9, AROCLOR 1254 (10%), Method: PREINCUBATION) “active; positive”; under setting [4], “inactive; negative”; (Test System: AMES SALMONELLA TYPHIMURIUM, Strain/Indicator: TA1535, Metabolic Activation: RAT, LIVER, S-9, AROCLOR 1254 (10%), Method: PREINCUBATION) “active; positive”.

`c1ccc2cc3c(cc2c1)cc1ccc2cccc4ccc3c1c24`: the mutagenic call (Test System: HUMAN H1A1V2 CELLS, Strain/Indicator: TK LOCUS, Metabolic Activation: NONE, Method: SUSPENSION/PLATE) was “active; positive”.

Take `O=C(O)/C=C/C(=O)O`: the mutagenic call by setting is: (Test System: AMES SALMONELLA TYPHIMURIUM, Strain/Indicator: TA97, Metabolic Activation: HAMSTER, LIVER, S-9, AROCLOR 1254 (10 OR 30%), Method: PREINCUBATION) “inactive; negative”; under setting [3], “inactive; negative”; (Test System: AMES SALMONELLA TYPHIMURIUM, Strain/Indicator: TA97, Metabolic Activation: RAT, LIVER, S-9, AROCLOR 1254 (10 OR 30%), Method: PREINCUBATION) “inactive; negative”; (Test System: AMES SALMONELLA TYPHIMURIUM, Strain/Indicator: TA97, Metabolic Activation: RAT, LIVER, S-9, AROCLOR 1254, Method: PREINCUBATION) “inactive; negative”; (Test System: AMES SALMONELLA TYPHIMURIUM, Strain/Indicator: TA98, Metabolic Activation: HAMSTER, LIVER, S-9, AROCLOR 1254 (10 OR 30%), Method: PREINCUBATION) “inactive; negative”; under setting [1], “inactive; negative”. The mutagenic call by setting is: (Test System: AMES SALMONELLA TYPHIMURIUM, Strain/Indicator: TA98, Metabolic Activation: RAT, LIVER, S-9, AROCLOR 1254 (10 OR 30%), Method: PREINCUBATION) “inactive; negative”; (Test System: AMES SALMONELLA TYPHIMURIUM, Strain/Indicator: TA100, Metabolic Activation: HAMSTER, LIVER, S-9, AROCLOR 1254 (10 OR 30%), Method: PREINCUBATION) “inactive; negative”; under setting [2], “inactive; negative”; (Test System: AMES SALMONELLA TYPHIMURIUM, Strain/Indicator: TA100, Metabolic Activation: RAT, LIVER, S-9, AROCLOR 1254 (10 OR 30%), Method: PREINCUBATION) “inactive; negative”; (Test System: AMES SALMONELLA TYPHIMURIUM, Strain/Indicator: TA102, Metabolic Activation: NONE, Method: PREINCUBATION) “inactive; negative”; (Test System: AMES SALMONELLA TYPHIMURIUM, Strain/Indicator: TA102, Metabolic Activation: RAT, LIVER, S-9, AROCLOR 1254, Method: PREINCUBATION) “inactive; negative”. In addition, the mutagenic call (Test System: AMES SALMONELLA TYPHIMURIUM, Strain/Indicator: TA1535, Metabolic Activation: HAMSTER, LIVER, S-9, AROCLOR 1254 (10 OR 30%), Method: PREINCUBATION) is “inactive; negative”; the mutagenic call under setting [4] is “inactive; negative”; the mutagenic call (Test System: AMES SALMONELLA TYPHIMURIUM, Strain/Indicator: TA1535, Metabolic Activation: RAT, LIVER, S-9, AROCLOR 1254 (10 OR 30%), Method: PREINCUBATION) is “inactive; negative”; the mutagenic call (Test System: MOUSE LYMPHOMA, Strain/Indicator: L5178Y (TK+/TK-), Metabolic Activation: NONE, Method: SUSPENSION/PLATE) is “active; positive. reevaluation of results: positive”; the mutagenic call (Test System: MOUSE LYMPHOMA, Strain/Indicator: L5178Y (TK+/TK-), Metabolic Activation: RAT, LIVER, S-9, AROCLOR 1254, Method: SUSPENSION/PLATE) was “active; positive. reevaluation of results: positive”.
